# Read-outs that look alike come from different tables or passages of the source.
# Tests used:
# [1] = system: A549 cells; assay type: cell-based, human
# Description: (§1) The RPMI 8226 or A549 cells were seeded in 6-well plates in medium containing 10% FBS without or with compound 3a (2.5, 5, 10, 20, or 40 µM). After 24-h and 48-h treatment, the cell cycle analysis was performed by determination of the DNA contents on the basis of PI staining as described previously. Briefly, the cells were harvested, washed with PBS, and fixed overnight with 80% ethanol at −20 °C. After that, the cells were washed with PBS and stained with PI using PI/RNase Staining Buffer (BD Biosciences, BD Pharmingen™, USA) for 30 min in darkness at RT. Next, the stained cells were analyzed using FACS Calibur. The intensity of PI fluorescence of individual nuclei was determined and at least 10 000 events were measured within an acquisition rate >60 events/s. The FACS data were analyzed using Cell Quest Pro Version 6.0 (BD Biosciences, San Jose, CA, USA). for the Macintosh operating system. The data were analyzed to determine the percentage of cells at the sub-G1 phase (apoptotic cells) and each phase of the cell cycle (G1, S, and G2/M).
# [2] = system: RPMI 8226 cells; assay type: cell-based, human
# Description: as §1
smiles,measurement,setting,value
"CN1C2CCC1CC(=NNc1nc(-c3ccc(I)cc3)cs1)C2 [Compound 3a, 4-(4-Iodophenyl)-2-(2-(8-methyl-8-azabicyclo[3.2.1]octan-3-ylidene)hydrazinyl)thiazole]",Cell cycle distribution G0/G1,"[1]; A549, 2.5 µM, 24 h",64.49±1.89 % of cells
same,Cell cycle distribution G2/M,"[1]; A549, 2.5 µM, 24 h",14.68±2.11 % of cells
same,Cell cycle distribution S,"[1]; A549, 2.5 µM, 24 h",12.39±2.34 % of cells
same,Cell cycle distribution sub-G1,"[1]; A549, 2.5 µM, 24 h",8.81±3.73 % of cells
same,Cell cycle distribution G0/G1,"[1]; A549, 2.5 µM, 48 h",73.22±1.97 % of cells
same,Cell cycle distribution G2/M,"[1]; A549, 2.5 µM, 48 h",8.91±2.22 % of cells
same,Cell cycle distribution S,"[1]; A549, 2.5 µM, 48 h",6.07±1.54 % of cells
same,Cell cycle distribution sub-G1,"[1]; A549, 2.5 µM, 48 h",11.98±3.62 % of cells
same,Cell cycle distribution G0/G1,"[1]; A549, 5 µM, 24 h",65.90±2.36 % of cells
same,Cell cycle distribution G2/M,"[1]; A549, 5 µM, 24 h",13.62±2.25 % of cells
same,Cell cycle distribution S,"[1]; A549, 5 µM, 24 h",12.18±2.45 % of cells
same,Cell cycle distribution sub-G1,"[1]; A549, 5 µM, 24 h",8.94±3.39 % of cells
same,Cell cycle distribution G0/G1,"[1]; A549, 5 µM, 48 h",68.55±8.03 % of cells
same,Cell cycle distribution G2/M,"[1]; A549, 5 µM, 48 h",9.05±1.72 % of cells
same,Cell cycle distribution S,"[1]; A549, 5 µM, 48 h",6.81±2.66 % of cells
same,Cell cycle distribution sub-G1,"[1]; A549, 5 µM, 48 h",15.74±6.03 % of cells
same,Cell cycle distribution G0/G1,"[1]; A549, 10 µM, 24 h",66.51±4.46 % of cells
same,Cell cycle distribution G2/M,"[1]; A549, 10 µM, 24 h",11.43±2.88 % of cells
same,Cell cycle distribution S,"[1]; A549, 10 µM, 24 h",9.82±2.73 % of cells
same,Cell cycle distribution sub-G1,"[1]; A549, 10 µM, 24 h",13.23±7.01 % of cells
same,Cell cycle distribution G0/G1,"[1]; A549, 10 µM, 48 h",68.54±6.87 % of cells
same,Cell cycle distribution G2/M,"[1]; A549, 10 µM, 48 h",8.44±1.47 % of cells
same,Cell cycle distribution S,"[1]; A549, 10 µM, 48 h",7.07±2.63 % of cells
same,Cell cycle distribution sub-G1,"[1]; A549, 10 µM, 48 h",16.15±6.33 % of cells
same,Cell cycle distribution G0/G1,"[1]; A549, 20 µM, 24 h",66.45±9.20 % of cells
same,Cell cycle distribution G2/M,"[1]; A549, 20 µM, 24 h",7.16±2.15 % of cells
same,Cell cycle distribution S,"[1]; A549, 20 µM, 24 h",5.23±2.38 % of cells
same,Cell cycle distribution sub-G1,"[1]; A549, 20 µM, 24 h",22.36±12.24 % of cells
same,Cell cycle distribution G0/G1,"[1]; A549, 20 µM, 48 h",63.07±6.59 % of cells
same,Cell cycle distribution G2/M,"[1]; A549, 20 µM, 48 h",5.19±0.93 % of cells
same,Cell cycle distribution S,"[1]; A549, 20 µM, 48 h",4.61±1.21 % of cells
same,Cell cycle distribution sub-G1,"[1]; A549, 20 µM, 48 h",27.32±6.78 % of cells
same,Cell cycle distribution G0/G1,"[1]; A549, 40 µM, 24 h",41.03±2.93 % of cells
same,Cell cycle distribution G2/M,"[1]; A549, 40 µM, 24 h",12.87±5.29 % of cells
same,Cell cycle distribution S,"[1]; A549, 40 µM, 24 h",11.34±0.58 % of cells
same,Cell cycle distribution sub-G1,"[1]; A549, 40 µM, 24 h",35.46±9.33 % of cells
same,Cell cycle distribution G0/G1,"[1]; A549, 40 µM, 48 h",16.49±3.46 % of cells
same,Cell cycle distribution G2/M,"[1]; A549, 40 µM, 48 h",2.19±0.38 % of cells
same,Cell cycle distribution S,"[1]; A549, 40 µM, 48 h",6.05±0.87 % of cells
same,Cell cycle distribution sub-G1,"[1]; A549, 40 µM, 48 h",75.27±4.12 % of cells
same,Cell cycle distribution G0/G1,"[2]; RPMI 8226, 2.5 µM, 24 h",41.14±1.03 % of cells
same,Cell cycle distribution G2,"[2]; RPMI 8226, 2.5 µM, 24 h",22.35±1.19 % of cells
same,Cell cycle distribution S,"[2]; RPMI 8226, 2.5 µM, 24 h",21.59±1.77 % of cells
same,Cell cycle distribution Sub-G1,"[2]; RPMI 8226, 2.5 µM, 24 h",15.53±2.23 % of cells
same,Cell cycle distribution G0/G1,"[2]; RPMI 8226, 2.5 µM, 48 h",35.8±1.49 % of cells
same,Cell cycle distribution G2,"[2]; RPMI 8226, 2.5 µM, 48 h",16.99±2 % of cells
same,Cell cycle distribution S,"[2]; RPMI 8226, 2.5 µM, 48 h",26.22±0.97 % of cells
same,Cell cycle distribution Sub-G1,"[2]; RPMI 8226, 2.5 µM, 48 h",21.49±0.94 % of cells
same,Cell cycle distribution G0/G1,"[2]; RPMI 8226, 5 µM, 24 h",38.23±6.83 % of cells
same,Cell cycle distribution G2,"[2]; RPMI 8226, 5 µM, 24 h",21.31±4.02 % of cells
same,Cell cycle distribution S,"[2]; RPMI 8226, 5 µM, 24 h",18.68±2.58 % of cells
same,Cell cycle distribution Sub-G1,"[2]; RPMI 8226, 5 µM, 24 h",21.32±6.2 % of cells
same,Cell cycle distribution G0/G1,"[2]; RPMI 8226, 5 µM, 48 h",40.3±3.15 % of cells
same,Cell cycle distribution G2,"[2]; RPMI 8226, 5 µM, 48 h",15.23±5.04 % of cells
same,Cell cycle distribution S,"[2]; RPMI 8226, 5 µM, 48 h",19.12±2.51 % of cells
same,Cell cycle distribution Sub-G1,"[2]; RPMI 8226, 5 µM, 48 h",25.53±7.59 % of cells
same,Cell cycle distribution G0/G1,"[2]; RPMI 8226, 10 µM, 24 h",38.08±9.38 % of cells
same,Cell cycle distribution G2,"[2]; RPMI 8226, 10 µM, 24 h",17.45±2.75 % of cells
same,Cell cycle distribution S,"[2]; RPMI 8226, 10 µM, 24 h",21.4±3.5 % of cells
same,Cell cycle distribution Sub-G1,"[2]; RPMI 8226, 10 µM, 24 h",23.53±7.04 % of cells
same,Cell cycle distribution G0/G1,"[2]; RPMI 8226, 10 µM, 48 h",38.5±2.77 % of cells
same,Cell cycle distribution G2,"[2]; RPMI 8226, 10 µM, 48 h",18.78±2.32 % of cells
same,Cell cycle distribution S,"[2]; RPMI 8226, 10 µM, 48 h",18.61±4.5 % of cells
same,Cell cycle distribution Sub-G1,"[2]; RPMI 8226, 10 µM, 48 h",28.01±5.09 % of cells
same,Cell cycle distribution G0/G1,"[2]; RPMI 8226, 20 µM, 24 h",42.63±4.03 % of cells
same,Cell cycle distribution G2,"[2]; RPMI 8226, 20 µM, 24 h",15.7±5.79 % of cells
same,Cell cycle distribution S,"[2]; RPMI 8226, 20 µM, 24 h",19.83±2.92 % of cells
same,Cell cycle distribution Sub-G1,"[2]; RPMI 8226, 20 µM, 24 h",24.09±2.62 % of cells
same,Cell cycle distribution G0/G1,"[2]; RPMI 8226, 20 µM, 48 h",31.66±10.94 % of cells
same,Cell cycle distribution G2,"[2]; RPMI 8226, 20 µM, 48 h",17.47±1.42 % of cells
same,Cell cycle distribution S,"[2]; RPMI 8226, 20 µM, 48 h",20.74±2.14 % of cells
same,Cell cycle distribution Sub-G1,"[2]; RPMI 8226, 20 µM, 48 h",29.68±10.49 % of cells

# Reference: article PMC7731314, “Tropinone-Derived Alkaloids as Potent Anticancer Agents: Synthesis, Tyrosinase Inhibition, Mechanism of Action, DFT Calculation, and Molecular Docking Studies” (International Journal of Molecular Sciences, 2020)
